Test results: US20240000950A1, “THERAPEUTIC CURE-PRO COMPOUNDS FOR TARGETED DEGRADATION OF BET DOMAIN PROTEINS, AND METHODS OF MAKING AND USING THEM” (CORNELL UNIVERSITY, priority 2020, published 2024)

Experiments:
[1] = system: SLC19A1; assay: Suppression of the c-MYC downstream target gene SLC19A1, RT-PCR in HeLa cells; format: cell-based, Human; settings: 24 h
Description: The suppression of the expression of the downstream c-MYC target, SLC19A1, was measured by RT-PCR using Power SYBR® Green Cells-to-Ct™ Kit (Life Technologies). Adherent cells were plated on 96 well plates at 5,000 cells per well were treated for 24 h with monomer compounds and compounds capable of reversible interactions (1 nM-100 μM). Cells were subsequently washed in ice-cold PBS processed according to the manufacturer's instructions. Quantitative real-time PCR was performed using a ViiA™ 7 Real-time PCR System (Applied Biosystems, Foster City, CA, USA). GAPDH and ACTB served as internal controls. The primers used were (5′-3′): GAPDH-F: AGCCACATCGCTCAGACAC (SEQ ID NO:9), GAPDH-R: GCCCAATACGACCAAATCC (SEQ ID NO:10), ACTB-F: CCAACCGCGAGAAGATGA (SEQ ID NO:11), ACTB-R: […] (SEQ ID NO:12), SLC19A1-F: […] (SEQ ID NO:13), SLC19A1-R: […] (SEQ ID NO:14).
HeLa cells (1×104) were treated for 24 hours in 96 well plates with the compounds solubilized in DMSO. Compounds were added at 10 μM each and RNA expression measured by the Cells-to Ct method described above (Thermofisher).

[2] = target: T1, BRD4 (Homo sapiens, UniProt O60885); assay: CURE-PRO-mediated BRD4 degradation in HeLa cells, Western blot; format: cell-based; design: endogenous in cells; host or cells: HeLa; settings: 24 h
Description: (§1) All cell lines were purchased from ATCC or DSMZ and grown at 37° C. with 5% C02. Human HeLa cells were cultured in complete growth medium (Dulbecco's modified Eagle's medium (DMEM) supplemented with 10% FBS); MCF7 cells were cultured in complete growth medium (Dulbecco's modified Eagle's medium (DMEM) supplemented with 10% FBS and 0.01 mg/ml human recombinant insulin (Sigma Aldrich); Namalwa and MOLM-13 cells were cultured in complete growth medium (RPMI 1640 medium supplemented with 10% FBS); MV-4-11 were cultured in complete growth medium (Iscove's Modified Dulbecco's medium, supplemented with 10% FBS); HCT116 cells were cultured in complete growth medium (McCoy's 5a Medium supplemented with 10% FBS). For cellular degradation of BRD4 studies, cells were seeded in a 12-well plate at 70-80% confluency, allowed to attach overnight, and incubated with the indicated compounds for the indicated time. When indicated, a 15-minute pretreatment with 10 μM pomalidomide, 10 μM VHL298, 10 μM Nutlin3a, 1 μM MG-132 or 1 μM Carfilzomib was performed before the addition of CURE-PROs. For washout studies, after CURE-PRO treatment, media was aspirated and incubated with complete medium for the indicated time before lysis.
(§2) Anti-BRD4 (13440, 1:1,000 dilution for Western Blot and 1:25 dilution for ProteinSimple); Anti-BRD2 (5848 1:1,000 dilution for Western Blot and 1:25 dilution for ProteinSimple); β-Actin (3700, 1:2,000 dilution for Western Blot), β-Actin (4970, 1:50 dilution for ProteinSimple) anti-mouse IgG-HRP, and anti-rabbit IgG-HRP antibodies were purchased Cell Signaling Technology. Anti-GAPDH (600-401-A33, 1:100 dilution for ProteinSimple) was purchased from Rockland Immunochemicals, Inc. Anti-BRD3 (sc-81202, 1:200 dilution for Western Blot) was purchased from Santa Cruz Biotechnology.
HeLa, MCF7, or HCT116 cells (2.5-3×10^6) were treated for 24 hours with the indicated compounds solubilized in DMSO. The cells were washed in ice-cold PBS and were then lysed in RIPA lysis buffer (150 mM NaCl, 5 mM EDTA, 1% NP-40, 0.5% sodium deoxycholate, 0.1% SDS, 50 mM Tris, pH 8.0) with Roche protease inhibitor complete cocktail and phosphatase inhibitors (10 mM sodium fluoride, 10 mM sodium pyrophosphate, 1 mM sodium orthovanadate and 20 mM β-glycerophosphate). The total protein concentrations were determined by Bradford Protein Assay and 10-20 μg of protein was loaded onto 4-15% Tris-Glycine gradient gels (Biorad). After standard gel electrophoresis, the separated proteins were transferred to PVDF membrane by wet transfer. The immunoblots were then blocked for 1 hour in 5% skim milk in TBST or 5% BSA in TBST, according to manufacturer's instructions, before an overnight incubation at 4° C. with indicated antibodies and membranes. Membranes were then incubated with the appropriate horseradish peroxidase-conjugated secondary antibodies (1:5,000 dilution) for 1 h at room temperature and the bands were visualized using the Clarity Max Western ECL Substrate (Biorad) and the ChemiDoc Imaging System (Biorad). Signal was detected with ECL Western Blotting Substrate (Pierce) and X-ray film processed with a Konica SRX-101 X-ray film processor or captured by Bio-Rad's Chemidoc Imaging system.
HeLa cells (2.5×10^6) were treated for 24 hours with the sample compounds solubilized in DMSO. Compounds were added at 1-10 μM each. Standardized protein samples were electrophoresed and imaged as described in the immunoblotting description above. FIGS. 6-18 depicts the CURE-PRO-mediated BRD4 degradation for BRD monomers (JQ1 derivatives comprising of catechol linkers), and CRBN ligands, 8048 and 8049 (pomalidomide derivatives comprising boronic acid linkers) combined in a 1:1 ratio.
HeLa cells (2.5×10^6) were treated for 24 hours with the compounds solubilized in DMSO. The compounds were added at 10 μM each. Standardized protein samples were electrophoresed and imaged as described in the immunoblotting section above. […]

[3] = target: T1, BRD4; assay: CURE-PRO-mediated BRD4 degradation in HeLa cells, WES capillary electrophoresis (ProteinSimple); format: cell-based; design: endogenous in cells; host or cells: HeLa; settings: for BRD4 degradation: 24 h, co-dosed with CRBN ligand 8047, 100 nM-10 μM each
Description: as §1, §2
WES Simple analysis was performed on WES system (ProteinSimple-Biotechne) according to the manufacturer's instructions. Total protein concentrations of cell lysates were determined by the Pierce BCA kit (Thermo Fisher). 3 μL of 0.3 μg/uL of the protein lysate was loaded onto a 12- to 230-kDa WES assay plate (ProteinSimple) where 300 nL sample was withdrawn through a capillary, subjected to electrophoretic separation of proteins by size, and followed by the simultaneous, HRP-based detection of proteins using the Anti-Rabbit Detection Module (Proteinsimple: #DM-001). The electropherograms were checked then the automatic peak detection was manually corrected if it was required.
HeLa cells (2.5×10^6) were treated for 4-24 hours with the compounds solubilized in DMSO. After 4 hours, indicated points were washed and cells were left in full growth media. Compounds were added at 10 μM each. […]

[4] = target: T1, BRD4; assay: Summary of E3 ligase directed degradation of BRD4, estimated from Western Blot or WES (Tables 1-6); format: cell-based; design: endogenous in cells; host or cells: HeLa, MCF7 or HCT116; settings: for Degradation of BRD4, combination with CRBN ligand [drawing 421]: CRBN ligand drawn as drawing 421 (by the text apparently 8047); for Degradation of BRD4, combination with CRBN ligand [drawing 422]: CRBN ligand drawn as drawing 422 (by the text apparently 8066)
Outline: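 HeLa, MCF7 or HCT116 cells treated 24 h with compounds in DMSO, lysed in RIPA buffer; BRD4 levels read by Western blot (ECL detection) or capillary WES with HRP detection. Check mark denotes 30% to 70% or higher protein degradation.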

[5] = target: T1, BRD4; assay: BRD protein family degradation in HCT116 cells with MDM2 ligands, Western blot: BRD4; format: cell-based; design: endogenous in cells; host or cells: HeLa, MCF7 or HCT116; settings: 24 h, with MDM2 ligands 8310 / 8312
Description: as §1, with “When indicated, a 15-minute pretreatment with 10 μM pomalidomide, 10 μM VHL298, 10 μM Nutlin3a, 1 μM MG-132 or 1 μM Carfilzomib was performed before the addition of CURE-PROs. For washout studies, after CURE-PRO treatment, media was aspirated and incubated with complete medium for the indicated time before lysis.” left out
HeLa, MCF7, or HCT116 cells (2.5-3×10^6) were treated for 24 hours with the indicated compounds solubilized in DMSO. […] The total protein concentrations were determined by Bradford Protein Assay and 10-20 μg of protein was loaded onto 4-15% Tris-Glycine gradient gels (Biorad). […] Signal was detected with ECL Western Blotting Substrate (Pierce) and X-ray film processed with a Konica SRX-101 X-ray film processor or captured by Bio-Rad's Chemidoc Imaging system. […]

Cc1sc2c(c1C)C(c1ccc(Cl)cc1)=N[C@@H](CC(=O)Nc1ccc(OCCOCCOCCOCCNc3cccc4c3C(=O)N(C3CCC(=O)NC3=O)C4=O)cc1)c1nnc(C)n1-2 (stereo partly shown) [ARV-825, reference compound]
suppression of SLC19A1 expression ([1]; 10 μM, single agent): Complete suppression of SLC19A1 was evident

CCNC(=O)C[C@@H]1N=C(c2ccc(Sc3cccc(B(O)O)c3)cc2)c2cc(OC)ccc2-n2c(C)nnc21 [BRD-E52, (3-((4-((4S)-4-(2-(ethylamino)-2-oxoethyl)-8-methoxy-1-methyl-4H-benzo[f][1,2,4]triazolo[4,3-a][1,4]diazepin-6-yl)phenyl)thio)phenyl)boronic acid]
BRD4 degradation with pomalidomide and the BRD ligand (no 8047) ([2]; 10 μM): failed to induce BRD4 degradation
BRD4 degradation after preincubation with pomalidomide ([2]; 10 μM, 1:1 with CRBN ligand 8047, pomalidomide preincubated 15 min at equimolar concentration): inhibition of CURE-PRO-mediated BRD4 degradation
BRD4 degradation, time dependence and washout ([3]; 4-24 h, 10 μM each, co-dosed with CRBN ligand 8047, washed after 4 h): marked BRD4 degradation after 4 h with sustained degradation for up to 8 h after drugs are washed out
BRD4 degradation [3]: marked BRD4 degradation
Degradation of BRD4, combination with CRBN ligand [drawing 421] ([4]; Table 1): ✓ (A black check mark indicates efficacy of 30% to 70% or higher protein degradation)
Degradation of BRD4, combination with CRBN ligand [drawing 422] ([4]; Table 1): ✓ (A black check mark indicates efficacy of 30% to 70% or higher protein degradation)

CCNC(=O)C[C@@H]1N=C(c2ccc(Sc3ccccc3)cc2)c2cc(OC)ccc2-n2c(C)nnc21 [BRD-E52C, N-ethyl-2-((4S)-8-methoxy-1-methyl-6-(4-(phenylthio)phenyl)-4H-benzo[f][1,2,4]triazolo[4,3-a][1,4]diazepin-4-yl)acetamide]
BRD4 degradation [3]: failed to induce degradation even at 10 μM

CCNC(=O)C[C@@H]1N=C(c2ccc(Cl)cc2)c2cc(OCCCCCCNC(=O)c3ccc(B(O)O)cc3)ccc2-n2c(C)nnc21 [BRD-E79, (4-((6-(((4S)-6-(4-chlorophenyl)-4-(2-(ethylamino)-2-oxoethyl)-1-methyl-4H-benzo[f][1,2,4]triazolo[4,3-a][1,4]diazepin-8-yl)oxy)hexyl)carbamoyl)phenyl)boronic acid]
BRD4 degradation ([2]; BRD ligand (monomer) alone): no change in expression is observed
Degradation of BRD4, combination with CRBN ligand [drawing 421] ([4]; Table 1): ✓ (A black check mark indicates efficacy of 30% to 70% or higher protein degradation)
Degradation of BRD4, combination with CRBN ligand [drawing 422] ([4]; Table 1): ✓ (A black check mark indicates efficacy of 30% to 70% or higher protein degradation)
Degradation of BRD4, combination with CRBN ligand [drawing 397] ([4]; Table 1, aromatic 1,2-diol- or hindered cis-1,2-diol-containing CRBN ligand drawn as drawing 397 (by the text apparently 8046)): ✓ (A black check mark indicates efficacy of 30% to 70% or higher protein degradation)
Degradation of BRD4, combination with MDM2 ligand [drawing 430] ([4]; Table 2, aromatic 1,2-diol-containing MDM2 ligand drawn as drawing 430 (by the text apparently 8313)): ✓ (A black check mark indicates efficacy of 30% to 70% or higher protein degradation)

CCNC(=O)C[C@@H]1N=C(c2ccc(Cl)cc2)c2cc(OCCOCCNC(=O)c3cccc(O)c3O)ccc2-n2c(C)nnc21 [BRD-N39, N-(2-(2-(((4S)-6-(4-chlorophenyl)-4-(2-(ethylamino)-2-oxoethyl)-1-methyl-4H-benzo[f][1,2,4]triazolo[4,3-a][1,4]diazepin-8-yl)oxy)ethoxy)ethyl)-2,3-dihydroxybenzamide]
suppression of SLC19A1 expression ([1]; 10 μM each, with MDM2 ligand 8310): a rightward shift in the curve and an increase in the Ct values
suppression of SLC19A1 expression ([1]; 10 μM each, with MDM2 ligand 8312): Complete suppression of SLC19A1 was evident
selectivity of degradation within the BRD protein family [5]: some selectivity for BRD4 over BRD2 and BRD3
Degradation of BRD4, combination with CRBN ligand [drawing 457] ([4]; Table 4, aryl-boronic acid-containing CRBN ligand drawn as drawing 457 (by the text apparently 8048)): ✓ (A black check mark indicates efficacy of 30% to 70% or higher protein degradation)
Degradation of BRD4, combination with MDM2 ligand [drawing 463] ([4]; Table 5, aryl-boronic acid-containing MDM2 ligand drawn as drawing 463 (apparently 8310)): ✓ (A black check mark indicates efficacy of 30% to 70% or higher protein degradation)
Degradation of BRD4, combination with MDM2 ligand [drawing 464] ([4]; Table 5, aryl-boronic acid-containing MDM2 ligand drawn as drawing 464 (apparently 8312)): ✓ (A black check mark indicates efficacy of 30% to 70% or higher protein degradation)
